ChEMBL document CHEMBL1201862, “PubChem BioAssay data set” (2004)
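These data come from cells grown in 96-well plates and exposed to compound for 48 hours at five concentrations. GI50 marks 50% less growth.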 The source made the active and inactive calls. Cut-off read from the data, not from the text of the source: active = GI50 up to about 1.1 µM and inactive = higher.

Experiments:
Test in all cases: NCI anticancer screen, dose series, 48 h
[1] = test system: BT-549
[2] = test system: NCI/ADR-RES
[3] = test system: HL-60
[4] = test system: HOP-62
[5] = test system: Malme-3M
[6] = test system: SW-620
[7] = test system: UO-31
[8] = test system: NCI-H23
[9] = test system: U-251
[10] = test system: HCC 2998
[11] = test system: PC-3
[12] = test system: SK-MEL-28
[13] = test system: OVCAR-5
[14] = test system: 786-0
[15] = test system: OVCAR-4
[16] = test system: NCI-H522
[17] = test system: NCI-H226
[18] = test system: A498
[19] = test system: K562
[20] = test system: NCI-H460
[21] = test system: DU-145
[22] = test system: M14
[23] = test system: MDA-N
[24] = test system: OVCAR-8
[25] = test system: UACC-62
[26] = test system: SN12C
[27] = test system: A549
[28] = test system: KM12
[29] = test system: SNB-19
[30] = test system: HCT-116
[31] = test system: TK-10
[32] = test system: CAKI-1
[33] = test system: EKVX
[34] = test system: SK-MEL-2
[35] = test system: SF-295
[36] = test system: Hs-578T
[37] = test system: SR
[38] = test system: HCT-15
[39] = test system: T47D
[40] = test system: IGROV-1
[41] = test system: SK-MEL-5
[42] = test system: HT-29
[43] = test system: MDA-MB-435
[44] = test system: MOLT-4
[45] = test system: ACHN
[46] = test system: OVCAR-3
[47] = test system: LOX IMVI
[48] = test system: SF-268
[49] = test system: HOP-92
[50] = test system: UACC-257
[51] = test system: MDA-MB-231
[52] = test system: RXF 393
[53] = test system: COLO 205
[54] = test system: SNB-75
[55] = test system: CCRF-CEM
[56] = test system: SF-539
[57] = test system: SK-OV-3
[58] = test system: MCF7
[59] = test system: RPMI-8226

## Nc1nc(Cc2ccccc2)nc(Cc2ccccc2)c1-c1ccccc1
[1]
  GI50: 20.6 µM (inactive)
[2]
  GI50: 16.7 µM (inactive)
[3]
  GI50: 24 µM (inactive)
[4]
  GI50: 20.7 µM (inactive)
[5]
  GI50: 20.4 µM (inactive)
[6]
  GI50: 33.9 µM (inactive)
[7]
  GI50: 27 µM (inactive)
[8]
  GI50: 17.7 µM (inactive)
[9]
  GI50: 17.9 µM (inactive)
[10]
  GI50: 46.6 µM (inactive)
[11]
  GI50: 23.1 µM (inactive)
[12]
  GI50: 48.1 µM (inactive)
[13]
  GI50: 29.1 µM (inactive)
[14]
  GI50: 22.9 µM (inactive)
[15]
  GI50: 38.5 µM (inactive)
[16]
  GI50: 16.9 µM (inactive)
[17]
  GI50: 19.2 µM (inactive)
[18]
  GI50: 26 µM (inactive)
[19]
  GI50: 18 µM (inactive)
[20]
  GI50: 28.2 µM (inactive)
[21]
  GI50: 22.8 µM (inactive)
[22]
  GI50: 30.3 µM (inactive)
[23]
  GI50: 16.1 µM (inactive)
[24]
  GI50: 28.7 µM (inactive)
[25]
  GI50: 18 µM (inactive)
[26]
  GI50: 28.2 µM (inactive)
[27]
  GI50: 33.9 µM (inactive)
[28]
  GI50: 28.1 µM (inactive)
[29]
  GI50: 75.7 µM (inactive)
[30]
  GI50: 19.5 µM (inactive)
[31]
  GI50: 56.9 µM (inactive)
[32]
  GI50: 39.5 µM (inactive)
[33]
  GI50: 11.4 µM (inactive)
[34]
  GI50: 13.6 µM (inactive)
[35]
  GI50: 25.6 µM (inactive)
[36]
  GI50: 85.7 µM (inactive)
[37]
  GI50: 20.8 µM (inactive)
[38]
  GI50: 21.5 µM
[39]
  GI50: 36.8 µM (inactive)
[40]
  GI50: 26.4 µM (inactive)
[41]
  GI50: 15.5 µM (inactive)
[42]
  GI50: 21.9 µM (inactive)
[43]
  GI50: 22.9 µM (inactive)
[44]
  GI50: 11.2 µM (inactive)
[45]
  GI50: 29 µM (inactive)
[46]
  GI50: 14.7 µM (inactive)
[47]
  GI50: 21.3 µM (inactive)
[48]
  GI50: 31 µM (inactive)
[49]
  GI50: 11.5 µM (inactive)
[50]
  GI50: 37.3 µM (inactive)
[51]
  GI50: 18.7 µM (inactive)
[52]
  GI50: 22.6 µM (inactive)

## Cc1ccc(Sc2ccccc2C23OC(C)(C4C(=O)N(c5ccccc5)C(=O)C42)N(C)C3=O)cc1 (configuration not stated)
[1]
  GI50: > 100 µM (inactive)
[2]
  GI50: > 100 µM (inactive)
[3]
  GI50: > 100 µM (inactive)
[5]
  GI50: 79.6 µM (inactive)
[6]
  GI50: > 100 µM (inactive)
[7]
  GI50: > 100 µM (inactive)
[53]
  GI50: > 100 µM (inactive)
[8]
  GI50: > 100 µM (inactive)
[9]
  GI50: > 100 µM (inactive)
[11]
  GI50: > 100 µM (inactive)
[12]
  GI50: > 100 µM (inactive)
[13]
  GI50: > 100 µM (inactive)
[14]
  GI50: 96.6 µM (inactive)
[15]
  GI50: 84.5 µM (inactive)
[16]
  GI50: > 100 µM (inactive)
[17]
  GI50: > 100 µM (inactive)
[18]
  GI50: 86.9 µM (inactive)
[19]
  GI50: > 100 µM (inactive)
[20]
  GI50: > 100 µM (inactive)
[54]
  GI50: > 100 µM (inactive)
[21]
  GI50: > 100 µM (inactive)
[22]
  GI50: > 100 µM (inactive)
[23]
  GI50: > 100 µM (inactive)
[24]
  GI50: > 100 µM (inactive)
[25]
  GI50: 88.5 µM (inactive)
[26]
  GI50: 90.2 µM (inactive)
[27]
  GI50: > 100 µM (inactive)
[28]
  GI50: > 100 µM (inactive)
[29]
  GI50: > 100 µM (inactive)
[30]
  GI50: > 100 µM (inactive)
[31]
  GI50: > 100 µM (inactive)
[32]
  GI50: > 100 µM (inactive)
[33]
  GI50: > 100 µM (inactive)
[34]
  GI50: > 100 µM (inactive)
[35]
  GI50: > 100 µM (inactive)
[36]
  GI50: 59.4 µM (inactive)
[55]
  GI50: > 100 µM (inactive)
[37]
  GI50: > 100 µM (inactive)
[38]
  GI50: > 100 µM
[39]
  GI50: > 100 µM (inactive)
[40]
  GI50: > 100 µM (inactive)
[41]
  GI50: > 100 µM (inactive)
[42]
  GI50: > 100 µM (inactive)
[56]
  GI50: > 100 µM (inactive)
[43]
  GI50: > 100 µM (inactive)
[44]
  GI50: > 100 µM (inactive)
[45]
  GI50: > 100 µM (inactive)
[57]
  GI50: > 100 µM (inactive)
[46]
  GI50: > 100 µM (inactive)
[47]
  GI50: > 100 µM (inactive)
[48]
  GI50: > 100 µM (inactive)
[49]
  GI50: 42.8 µM (inactive)
[50]
  GI50: > 100 µM (inactive)
[51]
  GI50: > 100 µM (inactive)
[52]
  GI50: 85.7 µM (inactive)

## C[C@]12CC[C@H](O)CC1=CC[C@@H]1[C@@H]2CC[C@]2(C)C(=O)/C(=C/c3ccc([N+](=O)[O-])cc3)C[C@@H]12
[1]
  GI50: 23.3 µM (inactive)
[2]
  GI50: 16.2 µM (inactive)
[3]
  GI50: 36.4 µM (inactive)
[58]
  GI50: 32.2 µM (inactive)
[4]
  GI50: 5.9 µM (inactive)
[5]
  GI50: 20.1 µM (inactive)
[6]
  GI50: 47.4 µM (inactive)
[7]
  GI50: 11 µM (inactive)
[8]
  GI50: 18.8 µM (inactive)
[10]
  GI50: 20 µM (inactive)
[59]
  GI50: > 100 µM (inactive)
[11]
  GI50: 10.4 µM (inactive)
[12]
  GI50: 22.1 µM (inactive)
[13]
  GI50: 19.2 µM (inactive)
[14]
  GI50: 3.43 µM (inactive)
[15]
  GI50: 8 µM (inactive)
[16]
  GI50: 12.2 µM (inactive)
[17]
  GI50: 2.96 µM (inactive)
[18]
  GI50: 13.5 µM (inactive)
[19]
  GI50: 59.6 µM (inactive)
[20]
  GI50: 23.8 µM (inactive)
[54]
  GI50: 3.52 µM (inactive)
[21]
  GI50: 13.4 µM (inactive)
[22]
  GI50: 26.8 µM (inactive)
[23]
  GI50: 51.5 µM (inactive)
[24]
  GI50: 3.15 µM (inactive)
[25]
  GI50: 65 µM (inactive)
[26]
  GI50: 11.2 µM (inactive)
[27]
  GI50: 13.3 µM (inactive)
[28]
  GI50: 33.7 µM (inactive)
[29]
  GI50: 10.4 µM (inactive)
[30]
  GI50: 13.7 µM (inactive)
[32]
  GI50: 24.1 µM (inactive)
[33]
  GI50: 8.91 µM (inactive)
[34]
  GI50: 17.7 µM (inactive)
[35]
  GI50: 6.65 µM (inactive)
[36]
  GI50: 7.83 µM (inactive)
[55]
  GI50: > 100 µM (inactive)
[37]
  GI50: 93.8 µM (inactive)
[38]
  GI50: 28.8 µM
[39]
  GI50: 14.3 µM (inactive)
[40]
  GI50: 8.73 µM (inactive)
[41]
  GI50: 16.3 µM (inactive)
[42]
  GI50: 25.5 µM (inactive)
[56]
  GI50: 6.92 µM (inactive)
[43]
  GI50: 52.5 µM (inactive)
[44]
  GI50: > 100 µM (inactive)
[45]
  GI50: 13.2 µM (inactive)
[57]
  GI50: 8.93 µM (inactive)
[46]
  GI50: 15.2 µM (inactive)
[47]
  GI50: 10 µM (inactive)
[48]
  GI50: 6.85 µM (inactive)
[49]
  GI50: 9.16 µM (inactive)
[50]
  GI50: 21.1 µM (inactive)
[52]
  GI50: 8.95 µM (inactive)
